The target of the test is T1, MpPR-1i (Moniliophthora perniciosa, UniProt H6U756).
T1 construct: gene PR-1i; signal peptide removed; cDNA from green broom stage; modified pET SUMO, E. coli SHuffle; His-SUMO tag cut with ULP-1; untagged; monomer
The test can be described thus: radioligand binding, Q-sepharose capture, scintillation counting.

Molecules are shown by their SMILES.

This is an account of results in publication PMC5552782, “Crystal Structure of MpPR-1i, a SCP/TAPS protein from Moniliophthora perniciosa, the fungus that causes Witches’ Broom Disease of Cacao” (Scientific Reports, 2017).

T1 sequence (H6U756 entry or part of it): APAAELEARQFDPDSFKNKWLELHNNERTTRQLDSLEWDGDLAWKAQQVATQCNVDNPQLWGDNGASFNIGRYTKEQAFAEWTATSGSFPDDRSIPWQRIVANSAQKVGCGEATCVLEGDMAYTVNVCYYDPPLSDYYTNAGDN

The Kd is a measure of binding affinity in units of concentration. Read a high Kd as lower affinity. As to `CCCCCCCCCCCCCCCC(=O)O` [palmitic acid], the Kd was determined as 107 µM.
